Experimental findings from US5110819A, “Substituted quinolines and medicinal use thereof” (Leo Pharmaceutical Products Ltd., priority 1987, dated 1992) are described below.

The test system of one test is 5-lipoxygenase. Description: 5-lipoxygenase activity in vitro (leukotriene B4 and 5-HETE production in A23187-stimulated rat peritoneal cells). It is filed as cell-based. To be noted: 10^-6 M. Here is the method: (§1) The following method was used to assay 5-lipoxygenase activity in vitro: Rat peritoneal cells were harvested by i.p. injection of 10 ml Hank's balanced salt solution (GIBCO, cat. No. 4025, U.S.A.) containing 12.5 U/ml sodium heparin (Leo, Denmark) in anaesthesized rats. The resulting cell suspension, which mainly contained macrophages, was transferred to a test tube and washed twice by centrifugation (200 g, 10 min.) and resuspended in Hank's balanced salt solution containing 0.5% bovine serum albumin (BSA) (Sigma Chem. Co., U.S.A.). The cells from 9 rats were finally resuspended in Hank's balanced salt solution (with BSA) containing 5 μCi [1-^14 C]arachidonic acid (The Radiochemical Centre, Amersham, U.K.) and incubated for 90 minutes at 37° C. This caused labelling of cell membrane phospholipids as radioactive arachidonic acid was incorporated in the 2-position of the glycerol moiety. Excess arachidonic acid was then removed by washing the cells twice as described above. The cells were finally resuspended in the same solution (without BSA) at 10^7 cells/ml. 475 μl of the cell suspension was preincubated at 37° C. for 5 minutes with either 5 μl dimethylsulphoxide (DMSO) (control tube), or 5 μl of a drug solution in DMSO. Then 20 μl of a mixture of equal volumes of the calcium ionophore A23187, 10^-4 M in ethanol (Calbiochem, U.S.A.), and 0.4M CaCl2 in water was added. The final concentration of A23187 was thus 2×10^-6 M, and of Ca^++ 8 mM. After 5 minutes of incubation the tubes were transferred to an ice-bath and centrifuged for 10 minutes at 3,000 g (4° C.). An aliquot of the supernatant was counted by liquid scintillation spectrometry in order to calculate the total radioactive release induced by A23187 in presence of drugs. A decrease in radioactive release was taken as indication of phospholipase A2 inhibition. The supernatant was then extracted with ethyl acetate (2 ml), adjusted to pH 3 with 1N HCl and further extracted with 2 ml ethyl acetate. The combined extracts were evaporated to dryness in vacuo, the residue was redissolved in a small volume of methanol and applied by means of a Desaga Autospotter™ to a silica-gel coated thin-layer plate fitted with a polar concentrating zone (Merck Art. 11798, Darmstadt, F.R.G.). The plates were developed in the organic layer of the solvent mixture ethyl acetate/acetic acid/iso-octane/water (55:10:25:50). Radioactive spots were detected by autoradiography (AGFA-GEVAERT, Osray-RPI X-ray film, Belgium), and changes induced by drugs in the metabolic pattern of arachidonic acid were quantified by a laser densitometer (LKB, Ultroscan™ 2202, Bromma, Sweden) in combination with an integrating computer (SP 4100, Spectra-Physics, San Jose, Calif., U.S.A.).
(§2) These cells produced measurable amounts of radioactive 6-keto-prostaglandinF1α, thromboxane B2, prostaglandin D2, hydroxyheptadecatrienoic acid (HHT) (all cyclooxygenase products), 5-hydroxyeicosatetraenoic acid (5-HETE) and leukotriene B4 (both 5-lipoxygenase products).
(§3) At the same time, a decrease in synthesis of the cyclooxygenase products HHT, prostaglandin D2, thromboxane B2 and 6-keto-prostaglandin F1α was not observed. This pattern of drug activity is indicative of truly specific 5-lipoxygenase inhibition.

A further test deals with cyclooxygenase. The test can be described thus: synthesis of cyclooxygenase products in A23187-stimulated rat peritoneal cells. The class given is cell-based. To be noted: 10^-6 M. Here is the method: as §1, §2, §3
Test [1] in a line: Pharmacological Data, IC50 (test not stated). Conditions: Pharmacological Data table.
Test [2] has as its target T1, guinea-pig tracheal strips (LTD4 concentration-response) (Cavia porcellus, UniProt Q2NNR5).
T1 construct: from tissue; host or cells: guinea-pig tracheal strips
T1 sequence (Q2NNR5 1-340): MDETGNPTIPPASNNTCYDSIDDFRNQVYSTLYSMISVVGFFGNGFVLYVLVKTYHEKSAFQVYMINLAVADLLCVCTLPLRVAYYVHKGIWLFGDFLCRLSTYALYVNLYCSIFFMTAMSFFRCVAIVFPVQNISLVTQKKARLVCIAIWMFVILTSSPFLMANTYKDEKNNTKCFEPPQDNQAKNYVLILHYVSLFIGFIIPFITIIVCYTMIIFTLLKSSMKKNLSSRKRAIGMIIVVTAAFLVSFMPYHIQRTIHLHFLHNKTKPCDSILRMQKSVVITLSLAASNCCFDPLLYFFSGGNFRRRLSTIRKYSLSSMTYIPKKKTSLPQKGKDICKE
The test can be described thus: LTD4 antagonism in guinea-pig tracheal strips (pKB). To be noted: for Kb: Pharmacological Data table; for pKB value: guinea-pig tracheal strips, negative logarithm of the antagonist dissociation constant. An excerpt:
Leukotrine antagonists may be further characterized using guinea-pig tracheal strips instead of ileum strips (10). In this relevant in vitro model of human airways (11) tracheal strips are suspended in a physiological buffer containing indomethacin. A concentration-response curve to LTD4 is generated in the presence and absence of the leukotriene antagonist. From these curves the potency of a leukotriene antagonist may be expressed as the pKB value, the negative logarithm of the antagonist dissociation constant. The pKB value is determined as -log ([antagonist]/(dose ratio -1)), where the dose ratio is defined as EC50 (pressence of antagonist)/EC50 (absence of antagonist) and EC50 refers to the concentration of LTD4 eliciting 50% of the maximum response to LTD4 (12).

The next test has as its target T2, LTD4 receptor (Cavia porcellus, UniProt Q2NNR5).
T2 construct: from tissue; host or cells: guinea-pig lung membranes
T2 sequence (Q2NNR5 1-340): T1 sequence (Q2NNR5 1-340)
Description: receptor binding: competition with [^3 H]LTD4 on guinea-pig lung membranes. Conditions: negative logarithm of molar concentration inhibiting binding by 50%, read-out: pIC50 value ([^3 H]LTD4 binding) (converted). An excerpt: It is of importance to investigate the receptor binding properties of leukotriene antagonists in relation to their pKB values (13), i.e. to correlate antagonist receptor blocking with inhibition of smooth muscle contraction. Receptor binding studies may be performed with guinea-pig lung membranes in a direct competition assay between a leukotriene antagonist and [^3 H]LTD4 for binding to the LTD4 receptor (10,13).

Consider `CC(Oc1ccccc1CNc1ccc(OCc2ccc3ccccc3n2)cc1)C(=O)O` (stereo not shown) [Example 13], for which the “decrease in the production of leukotriene B4 and 5-HETE” value (“decrease in the production” for short) in the test with 5-lipoxygenase is “significant and specific decrease”. For the same compound, in the test with cyclooxygenase, the “decrease in synthesis of the cyclooxygenase products HHT, prostaglandin D2, thromboxane B2 and 6-keto-prostaglandin F1α” value (“decrease in synthesis” for short) is “not observed”.

As to `O=C(O)Cc1ccc(NCc2cccc(OCc3ccc4ccccc4n3)c2)cc1` [Example 8], in the test on 5-lipoxygenase, the “decrease in the production” value is “significant and specific decrease”. The “decrease in synthesis” value in the test on cyclooxygenase is “not observed”.

In the case of `O=C(O)COc1ccccc1CNc1ccc(OCc2ccc3ccccc3n2)cc1` [Example 22, 4-(2'-Quinolylmethoxy)-N-(2"-carboxymethoxybenzyl)-aniline], the “decrease in the production” value in the test with 5-lipoxygenase is “significant and specific decrease”. For the same compound, the “decrease in synthesis” value in the test with cyclooxygenase was “not observed”.

With `O=C(NO)c1ccccc1Nc1cccc(OCc2ccc3ccccc3n2)c1` [Example 21, 3-(2'-Quinolylmethoxy)-N-(2"-hydroxaminocarbonylphenyl)-aniline], the “decrease in the production” value in the test on 5-lipoxygenase was “significant and specific decrease”. The “decrease in synthesis” value with cyclooxygenase is “not observed”.

Consider `O=C(O)CN(Cc1ccccc1)c1cccc(OCc2ccc3ccccc3n2)c1` [ref. I], for which, in test [1], the IC50 stood at 40 nM.

As for `O=C(O)CCCOc1ccc(CNc2cccc(OCc3ccc4ccccc4n3)c2)cc1` [Example 16], the “decrease in the production” value in the test with 5-lipoxygenase was “significant and specific decrease”. In addition, the “decrease in synthesis” value in the test on cyclooxygenase is recorded as “not observed”.

Take `c1ccc(CNc2ccccc2OCc2ccc3ccccc3n2)cc1` [example 67]: the IC50 in test [1] was > 10000 nM.

Broadly, the Kb is the affinity of an antagonist, worked out from how it opposes an agonist. Read a high Kb as a less potent antagonist. `c1ccc(CNc2cccc(OCc3ccc4ccccc4n3)c2)cc1` [example 39, reference compound] gave a Kb in test [2] of 126 nM. In addition, the IC50 in test [1] was 30 nM.

As for `O=C(O)COc1cccc(CNc2cccc(OCc3ccc4ccccc4n3)c2)c1` [Example 1, 3-(2'-Quinolylmethoxy)-N-(3"-carboxymethoxybenzyl)aniline], in test [2], the Kb was 5.01 nM and the pKB value is 8.3. Further, on LTD4 receptor, the IC50 is 50.1 nM.

As to `c1ccc(CNc2ccc(OCc3ccc4ccccc4n3)cc2)cc1` [example 38], the IC50 in test [1] was 900 nM.

With `O=C(O)c1ccccc1NCc1cccc(OCc2ccc3ccccc3n2)c1` [Example 2], the “decrease in the production” value in the test on 5-lipoxygenase is “significant and specific decrease”. The “decrease in synthesis” value with cyclooxygenase is given as “not observed”.

In test [2], `O=C(O)COc1ccc(CNc2cccc(OCc3ccc4ccccc4n3)c2)cc1` [Example 10, 3-(2'-quinolylmethoxy)-N-(4"-carboxymethoxybenzyl)aniline] had a Kb of 3.98 nM and a pKB value of 8.4. Also, the IC50 at LTD4 receptor is 31.6 nM.

For the compound `O=C(O)CCOc1ccccc1CNc1cccc(OCc2ccc3ccccc3n2)c1` [Example 11], in the test with 5-lipoxygenase, the “decrease in the production” value was “significant and specific decrease”. In the test on cyclooxygenase, the “decrease in synthesis” value is “not observed”.

For the compound `O=C(O)COc1ccccc1CNc1cccc(OCc2ccc3ccccc3n2)c1` [Example 9, 3-(2'-quinolylmethoxy)-N-(2"-carboxymethoxybenzyl)aniline], in the test on 5-lipoxygenase, the “decrease in the production” value is “significant and specific decrease”. Also, the “decrease in synthesis” value with cyclooxygenase is “not observed”. In test [2], this compound gave a Kb of 0.316 nM and a pKB value of 9.5. The IC50 on LTD4 receptor was 7.94 nM. Moreover, the IC50 in test [1] is 16 nM.

Take `O=C(O)CCCOc1ccccc1CNc1cccc(OCc2ccc3ccccc3n2)c1` [Example 14, 3-(2'-quinolylmethoxy)-N-(2"-carboxy-(3-propyloxy)benzyl)aniline]: in the test with 5-lipoxygenase, the “decrease in the production” value was “significant and specific decrease”. In addition, the “decrease in synthesis” value in the test on cyclooxygenase was “not observed”.

For `CC(Oc1ccc(CNc2cccc(OCc3ccc4ccccc4n3)c2)cc1)C(=O)O` (stereo not shown) [Example 12, 3-(2'-quinolylmethoxy)-N-(4"-(1-carboxyethoxy)benzyl)aniline], the “decrease in the production” value in the test on 5-lipoxygenase is “significant and specific decrease”. Also, in the test on cyclooxygenase, the “decrease in synthesis” value is given as “not observed”.

For the compound `O=C(NO)c1ccc(CN(Cc2cccc(F)c2)c2cccc(OCc3ccc4ccccc4n3)c2)cc1` [Example 20, 3(2'-Quinolylmethoxy)-N-(3"-fluorobenzyl)-N-(4'"-hydroxaminocarbonylbenzyl)aniline], the “decrease in the production” value in the test on 5-lipoxygenase is “significant and specific decrease”. The “decrease in synthesis” value in the test on cyclooxygenase is listed as “not observed”.
